Results published in the NIST ThermoML archive (doi:10.1021/je700260f).
± gives the expanded uncertainty stated by the source.

Conditions: Liquid, Vibrating tube method

FC(C(F)(F)F)C(F)(F)F [1,1,1,2,3,3,3-heptafluoropropane]
Conditions	mass density [kg/m3]
323.14 K, 26341 kPa	1449.9 ± 1.6
323.14 K, 26367 kPa	1450.1 ± 1.6
323.14 K, 26395 kPa	1450.2 ± 1.6
323.14 K, 26427 kPa	1450.3 ± 1.6
323.14 K, 26451 kPa	1450.5 ± 1.6
323.14 K, 26475 kPa	1450.5 ± 1.6
323.14 K, 26513 kPa	1450.7 ± 1.6
323.14 K, 26548 kPa	1450.8 ± 1.6
323.14 K, 26575 kPa	1450.8 ± 1.6
323.14 K, 26605 kPa	1451 ± 1.6
323.14 K, 26630 kPa	1451.2 ± 1.6
323.14 K, 26654 kPa	1451.3 ± 1.6
323.14 K, 26689 kPa	1451.4 ± 1.6
323.14 K, 26725 kPa	1451.6 ± 1.6
323.14 K, 26749 kPa	1451.6 ± 1.6
323.14 K, 26779 kPa	1451.8 ± 1.6
323.14 K, 26810 kPa	1451.9 ± 1.6
323.14 K, 26834 kPa	1451.9 ± 1.6
323.14 K, 26866 kPa	1452.2 ± 1.6
323.14 K, 26907 kPa	1452.2 ± 1.6
323.14 K, 26931 kPa	1452.3 ± 1.6
323.14 K, 26964 kPa	1452.5 ± 1.6
323.14 K, 26991 kPa	1452.7 ± 1.6
323.14 K, 27019 kPa	1452.7 ± 1.6
323.14 K, 27049 kPa	1452.9 ± 1.6
323.14 K, 27086 kPa	1452.9 ± 1.6
323.14 K, 27111 kPa	1453.1 ± 1.6
323.14 K, 27141 kPa	1453.2 ± 1.6
323.14 K, 27170 kPa	1453.4 ± 1.6
323.14 K, 27208 kPa	1453.4 ± 1.6
323.14 K, 27239 kPa	1453.6 ± 1.6
323.14 K, 27261 kPa	1453.7 ± 1.6
323.14 K, 27301 kPa	1453.9 ± 1.6
323.14 K, 27337 kPa	1453.9 ± 1.6
323.14 K, 27364 kPa	1454.2 ± 1.6
323.14 K, 27407 kPa	1454.4 ± 1.7
323.14 K, 27446 kPa	1454.5 ± 1.7
323.14 K, 29221 kPa	1461.5 ± 1.7
323.14 K, 29254 kPa	1461.6 ± 1.7
323.14 K, 29283 kPa	1461.7 ± 1.7
323.14 K, 29320 kPa	1461.9 ± 1.7
323.14 K, 29357 kPa	1462 ± 1.7
323.14 K, 29386 kPa	1462.2 ± 1.7
323.14 K, 29420 kPa	1462.2 ± 1.7
323.14 K, 29450 kPa	1462.4 ± 1.7
323.14 K, 29481 kPa	1462.5 ± 1.7
323.14 K, 29512 kPa	1462.7 ± 1.7
323.14 K, 29551 kPa	1462.8 ± 1.7
323.14 K, 29581 kPa	1462.9 ± 1.7
323.14 K, 29617 kPa	1463.1 ± 1.7
323.14 K, 29647 kPa	1463.3 ± 1.7
323.14 K, 29673 kPa	1463.3 ± 1.7
323.14 K, 29712 kPa	1463.4 ± 1.7
323.14 K, 30912 kPa	1468 ± 1.7
323.14 K, 30939 kPa	1468.2 ± 1.7
323.14 K, 30970 kPa	1468.1 ± 1.7
323.14 K, 31016 kPa	1468.3 ± 1.7
323.14 K, 31057 kPa	1468.4 ± 1.7
323.14 K, 31085 kPa	1468.6 ± 1.7
323.14 K, 31126 kPa	1468.7 ± 1.7
323.14 K, 31158 kPa	1468.9 ± 1.7
323.14 K, 31190 kPa	1468.9 ± 1.7
323.14 K, 31227 kPa	1469.2 ± 1.7
323.14 K, 31260 kPa	1469.2 ± 1.7
323.14 K, 31289 kPa	1469.4 ± 1.7
323.14 K, 31322 kPa	1469.5 ± 1.7
323.14 K, 31350 kPa	1469.7 ± 1.7
323.14 K, 31393 kPa	1469.8 ± 1.7
323.14 K, 31427 kPa	1469.8 ± 1.7
323.14 K, 31456 kPa	1469.9 ± 1.7
323.14 K, 31496 kPa	1470.1 ± 1.7
323.14 K, 31525 kPa	1470.2 ± 1.7
323.14 K, 31560 kPa	1470.3 ± 1.7
323.14 K, 31593 kPa	1470.5 ± 1.7
323.14 K, 31631 kPa	1470.6 ± 1.7
323.14 K, 31664 kPa	1470.7 ± 1.7
323.14 K, 31692 kPa	1470.8 ± 1.7
323.14 K, 31727 kPa	1470.8 ± 1.7
323.14 K, 31759 kPa	1471.1 ± 1.7
323.14 K, 31798 kPa	1471.2 ± 1.7
323.14 K, 31833 kPa	1471.3 ± 1.7
323.14 K, 31867 kPa	1471.5 ± 1.7
323.14 K, 31900 kPa	1471.6 ± 1.7
323.14 K, 31935 kPa	1471.8 ± 1.7
323.14 K, 31970 kPa	1471.9 ± 1.7
323.14 K, 32005 kPa	1472.1 ± 1.7
323.14 K, 32035 kPa	1472.1 ± 1.7
323.14 K, 32074 kPa	1472.2 ± 1.7
323.14 K, 32106 kPa	1472.4 ± 1.7
323.14 K, 32145 kPa	1472.5 ± 1.7
323.14 K, 32183 kPa	1472.7 ± 1.7
323.14 K, 32213 kPa	1472.9 ± 1.7
323.14 K, 32256 kPa	1472.9 ± 1.7
323.14 K, 32290 kPa	1473 ± 1.7
323.14 K, 32334 kPa	1473.2 ± 1.7
323.14 K, 32359 kPa	1473.2 ± 1.7
323.14 K, 32392 kPa	1473.5 ± 1.7
323.14 K, 32426 kPa	1473.5 ± 1.7
323.14 K, 32453 kPa	1473.6 ± 1.7
323.14 K, 32494 kPa	1473.7 ± 1.7
323.14 K, 32530 kPa	1473.9 ± 1.7
323.14 K, 32562 kPa	1474.1 ± 1.7
323.14 K, 32595 kPa	1474.2 ± 1.7
323.14 K, 32625 kPa	1474.2 ± 1.7
323.14 K, 32718 kPa	1474.5 ± 1.7
323.14 K, 32751 kPa	1474.7 ± 1.7
323.14 K, 32788 kPa	1474.8 ± 1.7
323.14 K, 32825 kPa	1475.1 ± 1.7
323.14 K, 32856 kPa	1475.1 ± 1.7
323.14 K, 32888 kPa	1475.2 ± 1.7
323.14 K, 32921 kPa	1475.3 ± 1.7
323.14 K, 32953 kPa	1475.5 ± 1.7
323.14 K, 32985 kPa	1475.4 ± 1.7
323.14 K, 33019 kPa	1475.7 ± 1.7
323.14 K, 33051 kPa	1475.7 ± 1.7
323.14 K, 33084 kPa	1475.8 ± 1.7
323.14 K, 33112 kPa	1476.1 ± 1.7
323.14 K, 33140 kPa	1476.1 ± 1.7
323.14 K, 33174 kPa	1476.3 ± 1.7
323.14 K, 33204 kPa	1476.4 ± 1.7
323.14 K, 33237 kPa	1476.4 ± 1.7
323.14 K, 33283 kPa	1476.6 ± 1.7
323.14 K, 33320 kPa	1476.7 ± 1.7
323.14 K, 33348 kPa	1476.8 ± 1.7
323.14 K, 33380 kPa	1477 ± 1.7
323.14 K, 33409 kPa	1477.2 ± 1.7
323.14 K, 33451 kPa	1477.2 ± 1.7
323.14 K, 33480 kPa	1477.5 ± 1.7
323.14 K, 33527 kPa	1477.5 ± 1.7
323.14 K, 33556 kPa	1477.6 ± 1.7
323.14 K, 33594 kPa	1477.8 ± 1.7
323.14 K, 33624 kPa	1477.9 ± 1.7
323.14 K, 33659 kPa	1477.9 ± 1.7
323.14 K, 33689 kPa	1477.9 ± 1.7
323.14 K, 33733 kPa	1478.3 ± 1.7
323.14 K, 33772 kPa	1478.3 ± 1.7
323.14 K, 33801 kPa	1478.4 ± 1.7
323.14 K, 33844 kPa	1478.5 ± 1.7
323.14 K, 33873 kPa	1478.6 ± 1.7
323.14 K, 33912 kPa	1478.8 ± 1.7
323.14 K, 33947 kPa	1479 ± 1.7
323.14 K, 33988 kPa	1479.1 ± 1.7
323.14 K, 34019 kPa	1479.2 ± 1.7
323.14 K, 34056 kPa	1479.3 ± 1.7
323.14 K, 34088 kPa	1479.4 ± 1.7
323.14 K, 34126 kPa	1479.7 ± 1.7
323.14 K, 34164 kPa	1479.7 ± 1.7
323.14 K, 34203 kPa	1479.9 ± 1.7
323.14 K, 34254 kPa	1480 ± 1.7
323.14 K, 34287 kPa	1480.1 ± 1.7
323.14 K, 34318 kPa	1480.4 ± 1.7
323.14 K, 34333 kPa	1480.4 ± 1.7
323.14 K, 34347 kPa	1480.4 ± 1.7
323.14 K, 34355 kPa	1480.4 ± 1.7
323.14 K, 34365 kPa	1480.4 ± 1.7
323.14 K, 34376 kPa	1480.5 ± 1.7
323.14 K, 34382 kPa	1480.5 ± 1.7
323.15 K, 2690 kPa	1295.1 ± 1.5
323.15 K, 2710 kPa	1295.4 ± 1.5
323.15 K, 2730 kPa	1295.6 ± 1.5
323.15 K, 2750 kPa	1295.9 ± 1.5
323.15 K, 2770 kPa	1296.1 ± 1.5
323.15 K, 2790 kPa	1296.3 ± 1.5
323.15 K, 2810 kPa	1296.6 ± 1.5
323.15 K, 2860 kPa	1297.2 ± 1.5
323.15 K, 3610 kPa	1305.8 ± 1.5
323.15 K, 5700 kPa	1326.8 ± 1.5
323.15 K, 5730 kPa	1327.1 ± 1.5
323.15 K, 5750 kPa	1327.2 ± 1.5
323.15 K, 5780 kPa	1327.6 ± 1.5
323.15 K, 5810 kPa	1327.8 ± 1.5
323.15 K, 5830 kPa	1328.1 ± 1.5
323.15 K, 5860 kPa	1328.3 ± 1.5
323.15 K, 5890 kPa	1328.7 ± 1.5
323.15 K, 5920 kPa	1329.1 ± 1.5
323.15 K, 5940 kPa	1329 ± 1.5
323.15 K, 7941 kPa	1346.2 ± 1.5
323.15 K, 7982 kPa	1346.7 ± 1.5
323.15 K, 8005 kPa	1346.8 ± 1.5
323.15 K, 8337 kPa	1349.4 ± 1.5
323.15 K, 8351 kPa	1349.6 ± 1.5
323.15 K, 8369 kPa	1349.8 ± 1.5
323.15 K, 8474 kPa	1350.5 ± 1.5
323.15 K, 8495 kPa	1350.7 ± 1.5
323.15 K, 8516 kPa	1350.8 ± 1.5
323.15 K, 8532 kPa	1351 ± 1.5
323.15 K, 8553 kPa	1351.1 ± 1.5
323.15 K, 8569 kPa	1351.3 ± 1.5
323.15 K, 8597 kPa	1351.5 ± 1.5
323.15 K, 8616 kPa	1351.8 ± 1.5
323.15 K, 8637 kPa	1351.8 ± 1.5
323.15 K, 8653 kPa	1351.9 ± 1.5
323.15 K, 8674 kPa	1352.2 ± 1.5
323.15 K, 8690 kPa	1352.3 ± 1.5
323.15 K, 8713 kPa	1352.5 ± 1.5
323.15 K, 8731 kPa	1352.6 ± 1.5
323.15 K, 8753 kPa	1352.6 ± 1.5
323.15 K, 8776 kPa	1352.9 ± 1.5
323.15 K, 8792 kPa	1353.1 ± 1.5
323.15 K, 8817 kPa	1353.1 ± 1.5
323.15 K, 8836 kPa	1353.4 ± 1.5
323.15 K, 8858 kPa	1353.5 ± 1.5
323.15 K, 8877 kPa	1353.6 ± 1.5
323.15 K, 8898 kPa	1353.8 ± 1.5
323.15 K, 9724 kPa	1360 ± 1.5
